We go through 16 compounds from patent US11065249B2, “Diacylglycerol acyl transferase 2 inhibitor” (Pfizer Inc., priority 2019, dated 2021).

One may read the pKa as the negative logarithm of the acid dissociation constant. Usually hepatocyte CLint stands for the capacity of the preparation to metabolise the compound, expressed as a volume cleared per time. A lower hepatocyte CLint goes with slow turnover. Broadly, the microsomal CLint is a measure of how fast metabolising enzymes remove a compound, apart from limits set by blood flow. Read a high microsomal CLint as faster metabolism. For orientation: IC50 means the midpoint of a concentration-inhibition curve. A low value points to greater potency in that assay.

Structures can show the parent of a compound that is named as a salt.

Series [1] is described as follows: Determination of pKa (capillary electrophoresis, Analiza). Type of series: physicochemical. Particulars: most basic pKa, mean.
The nature of series [2]: High throughput determination of intrinsic clearance in human hepatocytes. It is filed as in vitro ADME. As to conditions: human, pooled cryopreserved human hepatocytes (suspension), high throughput human hepatocyte assay, 1 μM test compound; mean +/− Std Dev. On the procedure:
The incubation was carried out at 37° C. […] The samples were centrifuged (Eppendorf, Hauppauge, N.Y.) at 3000 rpm for 5 min at 4° C.

The nature of series [3]: Intrinsic clearance in human liver microsomes. It is filed as in vitro ADME. As to conditions: 1 μM test compound, mean +/− STD Dev; for microsomal CLint at 1 μM: human, pooled human liver microsomes, pH 7.4, human liver microsome assay; for CLint (+/−STD Dev): human liver microsome assay. As to the method:
The incubations were conducted at 37° C. […] (Sorvall R C 3C Plus, Thermo Scientific, Waltham, Mass.).

The next series concerns the target human DGAT2 (hDGAT2) (Homo sapiens (Human), UniProt Q96PD7). The series can be described thus: In vitro DGAT2 assay, determination of IC50 values for DGAT2 inhibitors. Type of series: biochemical. As to conditions: inhibition of DGAT2, hDGAT2 membrane fractions; geometric mean. As to the method: Recombinant baculovirus for the FLAG-tagged hDGAT2 was generated in SF9 insect cells using Bac-to-Bac baculovirus expression system (Invitrogen) according to the manufacturer's protocol. For the expression of hDGAT2, SF9 cells (20 L) grown in Sf900II media were infected with hDGAT2 baculovirus at a multiplicity of infection of 1 in a Wave Bioreactor System 20/50P wave bag (GE Healthcare). After 40 hours of infection, the cells were then harvested by centrifugation at 5,000×g. The cell pellets were washed by resuspending in phosphate buffered saline (PBS) and collected by centrifugation at 5,000×g. The cell paste was flash frozen in liquid N2 and stored at −80° C. until needed. All operations below were at 4° C. unless otherwise noted. The cells were resuspended in lysis buffer (50 mM Tris-HCl, pH 8.0, 250 mM sucrose) including 1 mM ethylenediaminetetraacetic acid (EDTA) and the complete protease inhibitor cocktail (Roche Diagnostics) at a ratio of 3 mL buffer per 1 g cell paste. The cells were lysed by dounce homogenizer. The cell debris was removed by centrifugation at 1,000×g for 20 min, and the supernatant was centrifuged at 100,000×g for 1 hour. The resulting pellet was rinsed three times by filling ultracentrifuge tubes to the top with ice cold PBS before decanting. The washed pellet was resuspended with gentle stirring for 1 hour in lysis buffer containing 8 mM 3-[(3-cholamidopropyl)dimethylammonio]-1-propanesulfonate (CHAPS) at a ratio of 1 mL buffer per 1 g of original cell paste and centrifuged again at 100,000×g for 1 hour. The resulting supernatant was aliquotted, flash frozen in liquid N2, and stored at −80° C. until use.
To 1 μL of compounds dissolved in 100% DMSO and spotted at the bottom of each well, 5 μL of 0.04% bovine serum albumin (BSA) (fatty acid free, Sigma Aldrich) was added and the mixture was incubated at room temperature for 15 minutes. hDGAT2 membrane fractions were diluted in 100 mM Hepes-NaOH, pH 7.4, 20 mM MgCl2 containing 200 nM methyl arachidonyl fluorophosphonate (Cayman Chemical, dried from ethyl acetate stock solution under argon gas and dissolved in DMSO as 5 mM stock). 10 μL of this enzyme working solution was added to the plates and incubation continued for 2 hours at room temperature. DGAT2 reactions were initiated by the addition of 4 μL of substrates containing 30 μM [1-^14C]decanoyl-CoA (custom-synthesized by Perkin Elmer, 50 mCi/mmol) and 125 μM 1,2-didecanoyl-sn-glycerol (Avanti Polar Lipids) dissolved in 12.5% acetone. The reaction mixtures were incubated at room temperature for 40 min and the reactions were stopped by addition of 5 μL of 1% H3PO4. After the addition of 45 μL MicroScint-E (Perkin-Elmer), plates were sealed with Top Seal-A covers (Perkin-Elmer) and phase partitioning of substrates and products was achieved using a HT-91100 microplate orbital shaker (Big Bear Automation, Santa Clara, Calif.). Plates were centrifuged at 2,000×g for 1 minute in an Allegra 6R Centrifuge (Beckman Coulter) and then were sealed again with fresh covers before reading in a 1450 Microbeta Wallac Trilux Scintillation Counter (Perkin Elmer). DGAT2 activity was measured by quantifying the generated product [^14C]tridecanoylglycerol in the upper organic phase.
Inhibitors were tested at eleven different concentrations to generate IC50 values for each compound.

human DGAT2 (hDGAT2), sequence (Q96PD7 whole entry): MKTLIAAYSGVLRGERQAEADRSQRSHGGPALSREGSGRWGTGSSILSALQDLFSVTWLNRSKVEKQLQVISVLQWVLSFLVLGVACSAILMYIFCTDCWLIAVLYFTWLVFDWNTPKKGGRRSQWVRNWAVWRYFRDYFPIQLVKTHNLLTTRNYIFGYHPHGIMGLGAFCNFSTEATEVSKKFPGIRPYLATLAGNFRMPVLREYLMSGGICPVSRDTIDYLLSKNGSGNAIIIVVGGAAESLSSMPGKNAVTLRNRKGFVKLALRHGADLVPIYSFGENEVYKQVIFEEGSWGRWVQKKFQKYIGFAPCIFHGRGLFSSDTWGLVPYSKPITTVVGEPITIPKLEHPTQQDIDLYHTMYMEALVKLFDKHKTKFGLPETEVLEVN

For `CCOc1cc(F)cnc1Oc1cncc(-c2ncc(C(=O)N[C@@H]3CNC[C@@H](F)C3)cn2)c1` [Example 2, 2-{5-[(3-Ethoxy-5-fluoropyridin-2-yl)oxy]pyridin-3-yl}-N-[(3S,5S)-5-fluoropiperidin-3-yl]pyrimidine-5-carboxamide], in series [1], the pKa stood at 7.3. In series [2], this compound registered a hepatocyte CLint at 1 μM of 3.6 µL/min/1e6 cells. The compound also registered a microsomal CLint at 1 μM in series [3] below 7 µL/min/mg.

For the compound `CCOc1cccnc1Oc1cncc(-c2ncc(C(=O)NC3CCCNC3)cn2)c1` (centres unmarked) [Example 21, 2-{5-[(3-ethoxypyridin-2-yl)oxy]pyridin-3-yl}-N-(piperidin-3-yl)pyrimidine-5-carboxamide, trifluoroacetate salt], in series [3], the microsomal CLint at 1 μM was below 8 µL/min/mg.

For `CCOc1cccnc1Oc1cncc(-c2ncc(C(=O)NC3CCC(C(F)(F)F)NC3)cn2)c1` (single isomer, unassigned; ent-2) [Example 11, 2-{5-[(3-ethoxypyridin-2-yl)oxy]pyridin-3-yl}-N-[6-(trifluoromethyl)piperidin-3-yl]pyrimidine-5-carboxamide, trifluoroacetate salt, ENT-2], the pKa in series [1] stood at 4.5. For the same compound, in series [3], the “CLint (+/−STD Dev)” value was above 290 µL/min/mg. Besides, the half-maximal inhibitory concentration (IC50) against human DGAT2 (hDGAT2) was 4.4 nM.

Regarding `CCOc1cccnc1Oc1cncc(-c2ncc(C(=O)N[C@H]3CNCC[C@H]3C)cn2)c1` (racemic) [Example 20, rac-2-{5-[(3-ethoxypyridin-2-yl)oxy]pyridin-3-yl}-N-[(3R,4R)-4-methylpiperidin-3-yl]pyrimidine-5-carboxamide, trifluoroacetate salt], the intrinsic metabolic clearance (microsomal CLint) at 1 μM in series [3] stood at 8.9 µL/min/mg. On human DGAT2 (hDGAT2), the IC50 was 2100 nM.

For `CCOc1cccnc1Oc1cncc(-c2ncc(C(=O)NC3CCCNC3C)cn2)c1` (mixture of isomers) [Example 23, 2-{5-[(3-ethoxypyridin-2-yl)oxy]pyridin-3-yl}-N-(2-methylpiperidin-3-yl)pyrimidine-5-carboxamide, trifluoroacetate salt, mixture of stereoisomers], in series [3], the intrinsic clearance (microsomal CLint) at 1 μM is below 8 µL/min/mg.

Take `CCOc1cc(F)cnc1Oc1cncc(-c2ncc(C(=O)N[C@@H]3CNCC[C@H]3F)cn2)c1` [Example 6, 2-{5-[(3-Ethoxy-5-fluoropyridin-2-yl)oxy]pyridin-3-yl}-N-[(3R,4R)-4-fluoropiperidin-3-yl]pyrimidine-5-carboxamide]: the pKa in series [1] worked out at 7.4. For the same compound, in series [2], the intrinsic clearance (hepatocyte CLint) at 1 μM worked out at 4.7 µL/min/1e6 cells. In addition, in series [3], the intrinsic clearance (microsomal CLint) at 1 μM was below 7.8 µL/min/mg.

With `CCOc1cccnc1Oc1cncc(-c2ncc(C(=O)N[C@@H]3CCCNC3)cn2)c1` [Example 22, 2-{5-[(3-ethoxypyridin-2-yl)oxy]pyridin-3-yl}-N-[(3R)-piperidin-3-yl]pyrimidine-5-carboxamide, trifluoroacetate salt], the intrinsic metabolic clearance (microsomal CLint) at 1 μM in series [3] was below 8 µL/min/mg.

As for `CCOc1cccnc1Oc1cncc(-c2ncc(C(=O)NC3CNCC(F)(F)C3)cn2)c1` (centres unmarked) [Example 17, N-(5,5-difluoropiperidin-3-yl)-2-{5-[(3-ethoxypyridin-2-yl)oxy]pyridin-3-yl}pyrimidine-5-carboxamide], the pKa in series [1] is 5.4. Further, in series [2], the intrinsic clearance (hepatocyte CLint) at 1 μM is 8.3 µL/min/1e6 cells. The compound also showed a microsomal CLint at 1 μM in series [3] of 23 µL/min/mg.

Turning to `CCOc1cccnc1Oc1cncc(-c2ncc(C(=O)N[C@H]3CCC(C(F)(F)F)NC3)cn2)c1` (single isomer, unassigned) [Example 8, rac-2-{5-[(3-ethoxypyridin-2-yl)oxy]pyridin-3-yl}-N-[(3R,6S)-6-(trifluoromethyl)piperidin-3-yl]pyrimidine-5-carboxamide or rac-2-{5-[(3-ethoxypyridin-2-yl)oxy]pyridin-3-yl}-N-[(3R,6R)-6-(trifluoromethyl)piperidin-3-yl]pyrimidine-5-carboxamide], the pKa in series [1] amounted to 5.3. Moreover, the intrinsic metabolic clearance (microsomal CLint) at 1 μM in series [3] is below 14 µL/min/mg. Moreover, the half-inhibitory concentration (IC50) against human DGAT2 (hDGAT2) was 650 nM.

In turn, `CCOc1cccnc1Oc1cncc(-c2ncc(C(=O)N[C@@H]3CNCC[C@H]3C)cn2)c1` (racemic) [Example 24, rac-2-{5-[(3-ethoxypyridin-2-yl)oxy]pyridin-3-yl}-N-[(3R,4S)-4-methylpiperidin-3-yl]pyrimidine-5-carboxamide, trifluoroacetate salt] yielded a microsomal CLint at 1 μM in series [3] below 8 µL/min/mg. On human DGAT2 (hDGAT2), the IC50 stood at 16000 nM.

As for `CCOc1cccnc1Oc1cncc(-c2ncc(C(=O)N[C@@H]3CNCC(F)(F)C3)cn2)c1` (single isomer, unassigned) [Example 19, N-[(3S)-5,5-difluoropiperidin-3-yl]-2-{5-[(3-ethoxypyridin-2-yl)oxy]pyridin-3-yl}pyrimidine-5-carboxamide or N-[(3R)-5,5-difluoropiperidin-3-yl]-2-{5-[(3-ethoxypyridin-2-yl)oxy]pyridin-3-yl}pyrimidine-5-carboxamide], in series [1], the “Basic pKa” value is listed as 5.2. The “CLint (+/−STD Dev)” value in series [3] amounted to 34 ± 1.9 µL/min/mg. On human DGAT2 (hDGAT2), the IC50 stood at 240 nM.

`CCOc1cccnc1Oc1cncc(-c2ncc(C(=O)N[C@H]3CCCNC3)cn2)c1` [Example 14, 2-{5-[(3-ethoxypyridin-2-yl)oxy]pyridin-3-yl}-N-[(3S)-piperidin-3-yl]pyrimidine-5-carboxamide, trifluoroacetate salt] came in with a hepatocyte CLint at 1 μM in series [2] below 1.8 µL/min/1e6 cells. For the same compound, the intrinsic clearance (microsomal CLint) at 1 μM in series [3] was below 8 µL/min/mg.

In series [1], `CCOc1cccnc1Oc1cncc(-c2ncc(C(=O)N[C@@H]3CNCC(F)(F)C3)cn2)c1` (single isomer, unassigned) [Example 18, N-[(3S)-5,5-difluoropiperidin-3-yl]-2-{5-[(3-ethoxypyridin-2-yl)oxy]pyridin-3-yl}pyrimidine-5-carboxamide or N-[(3R)-5,5-difluoropiperidin-3-yl]-2-{5-[(3-ethoxypyridin-2-yl)oxy]pyridin-3-yl}pyrimidine-5-carboxamide] yielded a pKa of 5.2. Further, in series [2], the hepatocyte CLint at 1 μM turned out to be 9.3 µL/min/1e6 cells. The compound also returned a microsomal CLint at 1 μM in series [3] of 19 µL/min/mg.

With `CCOc1cc(F)cnc1Oc1cncc(-c2ncc(C(=O)N[C@H]3CNCC[C@@H]3F)cn2)c1` [Example 13, 2-{5-[(3-ethoxy-5-fluoropyridin-2-yl)oxy]pyridin-3-yl}-N-[(3S,4S)-4-fluoropiperidin-3-yl]pyrimidine-5-carboxamide, formate salt], in series [1], the pKa is 6.7. Also, the intrinsic metabolic clearance (hepatocyte CLint) at 1 μM in series [2] amounted to 12 µL/min/1e6 cells. Also, in series [3], the intrinsic metabolic clearance (microsomal CLint) at 1 μM was found to be 35 µL/min/mg.

With `CCOc1cccnc1Oc1cncc(-c2ncc(C(=O)N[C@H]3CNCCC3(F)F)cn2)c1` (single isomer, unassigned) [Example 15, N-[(3S)-4,4-difluoropiperidin-3-yl]-2-{5-[(3-ethoxypyridin-2-yl)oxy]pyridin-3-yl}pyrimidine-5-carboxamide, trifluoroacetate salt or N-[(3R)-4,4-difluoropiperidin-3-yl]-2-{5-[(3-ethoxypyridin-2-yl)oxy]pyridin-3-yl}pyrimidine-5-carboxamide, trifluoroacetate salt], the intrinsic metabolic clearance (hepatocyte CLint) at 1 μM in series [2] turned out to be 5.3 µL/min/1e6 cells. In addition, the microsomal CLint at 1 μM in series [3] worked out at 21 µL/min/mg.

Turning to `CCOc1cccnc1Oc1cncc(-c2ncc(C(=O)N[C@H]3CNCC[C@@H]3F)cn2)c1` [Example 12, 2-{5-[(3-ethoxypyridin-2-yl)oxy]pyridin-3-yl}-N-[(3S,4S)-4-fluoropiperidin-3-yl]pyrimidine-5-carboxamide, trifluoroacetate salt], in series [1], the pKa came to 7.5. Besides, the hepatocyte CLint at 1 μM in series [2] was below 2.6 µL/min/1e6 cells. The compound also came in with a microsomal CLint at 1 μM in series [3] below 7 µL/min/mg.
